Experimental data from US4863944A, “Dopamine-β-hydroxylase inhibitors” (SmithKline Beckman Corporation, priority 1988, dated 1989).
Counter-ions that a name gives are not always drawn. One block for each compound: values may come before it.

What was measured:
DBH [1] = conditions: treated patients; Friedman et al.; significance uncertain; cited from earlier work
DBH [2] = conditions: cited from earlier work; for DBH inhibition / mode of DBH inhibition: result in words
[3] = at certain concentrations; Ehrreich et al.; cited from earlier work
[4] = target: T1, dopamine-β-hydroxylase (DBH) (Bos taurus, UniProt P15101); test: biochemical; conditions: in vitro; tyramine to octopamine; absorbance at 330 nm; read-out: IC50 (molar concentration of compound at which DBH activity was halved)
T1 sequence (P15101 1-610): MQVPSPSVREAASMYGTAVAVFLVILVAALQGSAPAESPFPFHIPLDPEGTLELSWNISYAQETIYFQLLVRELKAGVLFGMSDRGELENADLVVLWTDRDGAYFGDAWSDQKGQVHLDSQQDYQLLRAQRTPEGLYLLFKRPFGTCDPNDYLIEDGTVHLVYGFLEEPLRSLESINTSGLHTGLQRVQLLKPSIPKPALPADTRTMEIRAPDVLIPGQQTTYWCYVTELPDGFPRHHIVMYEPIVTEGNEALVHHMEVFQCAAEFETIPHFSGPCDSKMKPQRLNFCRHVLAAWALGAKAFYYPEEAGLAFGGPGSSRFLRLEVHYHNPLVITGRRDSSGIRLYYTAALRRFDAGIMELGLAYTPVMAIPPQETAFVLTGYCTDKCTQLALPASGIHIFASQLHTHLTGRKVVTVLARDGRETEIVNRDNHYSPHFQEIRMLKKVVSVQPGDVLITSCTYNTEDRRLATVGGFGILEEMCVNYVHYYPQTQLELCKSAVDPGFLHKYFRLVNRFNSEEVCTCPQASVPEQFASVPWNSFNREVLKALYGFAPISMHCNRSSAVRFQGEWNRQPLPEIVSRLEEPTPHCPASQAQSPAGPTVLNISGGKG
Description: Octopamine was assayed following sodium periodate oxidation to p-hydroxybenzaldehyde by measuring spectrophotometric absorbance at 330 nm. […] Melting points (mp) are given in °C.

[5] = system: spontaneously hypertensive rats; test: in vivo activity in spontaneously hypertensive rats: electrolyte excretion, urine volume, systolic blood pressure, heart rate; set-up: species or system rats (Okamoto-Aoki strain spontaneously hypertensive); conditions: for Heart Rate 1st dose / Systolic Blood Pressure 1st dose: after 1st dose; for Heart Rate 1st dose / Systolic Blood Pressure 1st dose / Heart Rate 2nd dose / Systolic Blood Pressure 2nd dose: tail-cuff; for Heart Rate 2nd dose / Systolic Blood Pressure 2nd dose: two hours after 2nd dose; for Electrolytes Excreted K^+ / Electrolytes Excreted Na^+ / Urine Volume: urine collected for three hours
Excerpt: The following procedure was used to test, for in vivo activity, compounds which can be used to inhibit DBH activity in mammals, including certain illustrative compounds of the invention. The compounds wherein R is --CO2 H or --CH2 NHC6 H5, X is --H, Y is --H and n is 1 are not compounds of the invention but can be used in the method of the invention.
Male, Okamoto-Aoki strain spontaneously hypertensive rats, aged 16-20 weeks, were used for testing. The afternoon before testing, the animals were fasted and the following morning the first dose of the test compound was administered, p.o., along with a 25 ml/kg load of normal saline. The animals were then placed in metabolism cages, three per cage, and urine was collected for three hours and subsequently analyzed for sodium, potassium, and creatinine. Indirect systolic blood pressure and heart rate were measured via a tail-cuff method and the animals received an identical second does of the test compound. Two hours after the second dose, the systolic blood pressure and heart rate were again determined. Drugs were administered as a solution or suspension in normal saline with 0.02% ascorbic acid.
Three rats weighing 270-320 g were used. Each received two intraperitoneal injections, in a 24 hour period, of a dose volume of 5 mL and a dose concentration of 50 mg/kg or 25 mg/kg, in 0.9% NaCl, following a 24 hour pretreatment dose. Averaged results with control animals, three per experiment, are reported in parentheses below results of test animals.

[6] = result in words; cited from earlier work
[7] = result in words; Teresawa et al.; cited from earlier work

Compound: COC(=O)[C@H]1[C@H]2C[C@@H]3c4[nH]c5cc(OC)ccc5c4CCN3C[C@H]2C[C@@H](OC(=O)c2cc(OC)c(OC)c(OC)c2)[C@@H]1OC [reserpine]
DBH levels (DBH [1]): lowered DBH levels

Compound: CN(C)C(=S)SCc1ccc(C(=O)O)nc1 [5-(dimethyldithiocarbamoyl)methyl picolinic acid]
DBH inhibition (DBH [2]): DBH inhibitors

Compound: NCCc1ccc(O)c(O)c1 [DA, dopamine]
vasodilator activity [3]: selective vasodilator activity at certain concentrations

IC50 [4]: 35 µM
Compound: Br.Br.NCc1nccn1Cc1ccc(O)cc1 [R = CH2 NH2.2HBr, Y = OH, X = H, n = 1, 1-(4-hydroxybenzyl)-2-aminomethyl imidazole dihydrobromide]
Na^+ /K^+ ratio ([5]; dose = 25 mg/kg): 2.159
Heart Rate 1st dose ([5]; dose = 25 mg/kg): 420 beats/min
Systolic Blood Pressure 1st dose ([5]; dose = 25 mg/kg): 161 mmHg
Heart Rate 2nd dose ([5]; dose = 25 mg/kg): 440 beats/min
Systolic Blood Pressure 2nd dose ([5]; dose = 25 mg/kg): 158 mmHg
Electrolytes Excreted K^+ ([5]; dose = 25 mg/kg): 103.42 μEq/rat
Electrolytes Excreted Na^+ ([5]; dose = 25 mg/kg): 223.24 μEq/rat
Urine Volume ([5]; dose = 25 mg/kg): 3 ml/rat
in vivo activity as antihypertensive ([5]; result in words): significant antihypertensive activity

Compound: NOCc1ccccc1 [Benzyloxyamine, benzyloxyamine]
mode of DBH inhibition (DBH [2]): apparently act as competitive inhibitors

IC50 [4]: 70 µM
Compound: O=C(O)c1nccn1CCCc1ccc(O)cc1 [R = CO2 H.1/2 H2 O, Y = OH, X = H, n = 3, 1-[3-(4-hydroxyphenyl)propyl]imidazole-2-carboxylic acid, hemihydrate]
Na^+ /K^+ ratio ([5]; dose = 25 mg/kg): 1.313
Heart Rate 1st dose ([5]; dose = 25 mg/kg): 400 beats/min
Systolic Blood Pressure 1st dose ([5]; dose = 25 mg/kg): 176 mmHg
Heart Rate 2nd dose ([5]; dose = 25 mg/kg): 440 beats/min
Systolic Blood Pressure 2nd dose ([5]; dose = 25 mg/kg): 173 mmHg
Electrolytes Excreted K^+ ([5]; dose = 25 mg/kg): 152.18 μEq/rat
Electrolytes Excreted Na^+ ([5]; dose = 25 mg/kg): 199.74 μEq/rat
Urine Volume ([5]; dose = 25 mg/kg): 6 ml/rat
in vivo activity as diuretic ([5]; result in words): significant diuretic activity

IC50 [4]: 75 µM
Compound: COc1ccc(Cn2ccnc2C(=O)O)cc1 [R = CO2 H.HCl, Y = OCH3, X = H, n = 1, 1-(4-methoxybenzyl)imidazole-2-carboxylic acid hydrochloride]

Compound: CC(C)NCC(O)COc1cccc2ccccc12 (racemic) [propanolanol]
DBH levels (DBH [1]): not

Compound: NNCc1ccccc1 [benzylhydrazine]
mode of DBH inhibition (DBH [2]): apparently act as competitive inhibitors

Compound: CCCCc1ccc(C(N)=O)nc1 [Bupicomide, 5-(n-butyl)picolinamide]
DBH inhibition (DBH [2]): DBH inhibitor
antihypertensive activity [6]: antihypertensive activity

Compound: NCc1nccn1Cc1ccccc1 [R = CH2 NH2.2HCl, Y = H, X = H, n = 1, 1-benzyl-2-aminomethyl imidazole dihydrochloride]
IC50 [4]: 240 µM

IC50 [4]: > 100 µM
Compound: Br.Br.Oc1ccc(Cn2ccnc2CNc2ccccc2)cc1 [1-(4-hydroxybenzyl)-2-phenylaminomethyl imidazole dihydrobromide]
Na^+ /K^+ ratio ([5]; dose = 50 mg/kg): 2.927
Heart Rate 1st dose ([5]; dose = 50 mg/kg): 440 beats/min
Systolic Blood Pressure 1st dose ([5]; dose = 50 mg/kg): 181 mmHg
Heart Rate 2nd dose ([5]; dose = 50 mg/kg): 480 beats/min
Systolic Blood Pressure 2nd dose ([5]; dose = 50 mg/kg): 175 mmHg
Electrolytes Excreted K^+ ([5]; dose = 50 mg/kg): 74.27 μEq/rat
Electrolytes Excreted Na^+ ([5]; dose = 50 mg/kg): 217.36 μEq/rat
Urine Volume ([5]; dose = 50 mg/kg): 3 ml/rat
in vivo activity as cardiotonic ([5]; result in words): significant cardiotonic activity

Compound: O=C(O)c1ccc(CCCCCl)cn1 [5-(4-chlorobutyl)picolinic acid]
DBH inhibition (DBH [2]): can inhibit DBH

IC50 [4]: 90 µM
Compound: O=C(O)c1nccn1Cc1ccc(O)cc1 [R = CO2 H.HCl, Y = OH, X = H, n = 1, hydrochloride hydrate]

Compound: CC(N)(Cc1ccc(O)c(O)c1)C(=O)O (stereo not drawn) [alpha-methyl-DOPA]
DBH levels (DBH [1]): lowered DBH levels

Compound: O=C(O)c1ccc(Cc2ccc(O)cc2)cn1 [phenopicolinic acid]
DBH inhibitory activity relative to fusaric acid (DBH [2]; Runti et al.): twice the inhibitory activity of fusaric acid
DBH inhibition (DBH [2]): can inhibit DBH

IC50 [4]: 95 µM
Compound: COc1ccc(CCCn2ccnc2C(=O)O)cc1 [R = CO2 H.HCl, Y = OCH3, X = H, n = 3, 1-[3-(4-methoxyphenyl)propyl]imidazole-2-carboxylic acid hydrochloride]

Compound: CCCCc1ccc(C(=O)O)nc1 [Fusaric acid]
hepatotoxicity [7]: hepatotoxic

IC50 [4]: 11 µM
Compound: O=C(O)c1nccn1Cc1ccccc1 [R = CO2 H.HCl, Y = H, X = H, n = 1]
Na^+ /K^+ ratio ([5]; dose = 50 mg/kg): 1.270
Heart Rate 1st dose ([5]; dose = 50 mg/kg): 440 beats/min
Systolic Blood Pressure 1st dose ([5]; dose = 50 mg/kg): 211 mmHg
Heart Rate 2nd dose ([5]; dose = 50 mg/kg): 480 beats/min
Systolic Blood Pressure 2nd dose ([5]; dose = 50 mg/kg): 185 mmHg
Electrolytes Excreted K^+ ([5]; dose = 50 mg/kg): 214.52 μEq/rat
Electrolytes Excreted Na^+ ([5]; dose = 50 mg/kg): 272.54 μEq/rat
Urine Volume ([5]; dose = 50 mg/kg): 15 ml/rat
in vivo activity as antihypertensive ([5]; result in words): significant in vivo activity
in vivo activity as cardiotonic ([5]; result in words): significant in vivo activity
in vivo activity as diuretic ([5]; result in words): significant in vivo activity
in vivo activity as natriuretic ([5]; result in words): significant in vivo activity

Compound: O=C(O)c1ccc(CCC(Br)CBr)cn1 (centres unmarked) [5-(3,4-dibromo)butyl picolinic acid]
DBH inhibition (DBH [2]): DBH inhibitors

IC50 [4]: 100 µM
Compound: c1ccc(CNCc2nccn2Cc2ccccc2)cc1 [1-benzyl-2-benzylaminomethyl imidazole dihydrochloride]
